Article PMC10620772, “Design, synthesis, and biological evaluation of new pyrimidine-5-carbonitrile derivatives as novel anti-cancer, dual EGFR^WT/COX-2 inhibitors with docking studies” (RSC Advances, 2023)

Legend:
Test in all cases: NCI60 antitumor screening
Format in all cases: cell-based, human
786–0 = details: Homo sapiens; 10 μM single dose; 786–0 (renal cancer); read-out: growth inhibition percent (GI%)
OVCAR-3 = details: Homo sapiens; 10 μM single dose; OVCAR-3 (ovarian cancer); read-out: growth inhibition percent (GI%)
HT29 = details: Homo sapiens, HT-29; 10 μM single dose; HT29 (colon cancer); read-out: growth inhibition percent (GI%)
MOLT-4 = details: Homo sapiens; 10 μM single dose; MOLT-4 (leukaemia); read-out: growth inhibition percent (GI%)
NCI-H522 = details: Homo sapiens; 10 μM single dose; NCI-H522 (non-small cell lung cancer); read-out: growth inhibition percent (GI%)
A549/ATCC = details: Homo sapiens; 10 μM single dose; A549/ATCC (non-small cell lung cancer); read-out: growth inhibition percent (GI%)
TK-10 = details: Homo sapiens; 10 μM single dose; TK-10 (renal cancer); read-out: growth inhibition percent (GI%)
U251 = details: Homo sapiens, U-251; 10 μM single dose; U251 (CNS cancer); read-out: growth inhibition percent (GI%)
SF-539 = details: Homo sapiens; 10 μM single dose; SF-539 (CNS cancer); read-out: growth inhibition percent (GI%)
PC-3 = details: Homo sapiens; 10 μM single dose; PC-3 (prostate cancer); read-out: growth inhibition percent (GI%)
MCF7 = details: Homo sapiens; 10 μM single dose; MCF7 (breast cancer); read-out: growth inhibition percent (GI%)
NCI-H460 = details: Homo sapiens; 10 μM single dose; NCI-H460 (non-small cell lung cancer); read-out: growth inhibition percent (GI%)
SNB-75 = details: Homo sapiens; 10 μM single dose; SNB-75 (CNS cancer); read-out: growth inhibition percent (GI%)
SNB-19 = details: Homo sapiens; 10 μM single dose; SNB-19 (CNS cancer); read-out: growth inhibition percent (GI%)
KM12 = details: Homo sapiens; 10 μM single dose; KM12 (colon cancer); read-out: growth inhibition percent (GI%)
HOP-62 = details: Homo sapiens; 10 μM single dose; HOP-62 (non-small cell lung cancer); read-out: growth inhibition percent (GI%)
SF-295 = details: Homo sapiens; 10 μM single dose; SF-295 (CNS cancer); read-out: growth inhibition percent (GI%)
SN12C = details: Homo sapiens; 10 μM single dose; SN12C (renal cancer); read-out: growth inhibition percent (GI%)
NCI-H322M = details: Homo sapiens; 10 μM single dose; NCI-H322M (non-small cell lung cancer); read-out: growth inhibition percent (GI%)
SK-MEL-5 = details: Homo sapiens; 10 μM single dose; SK-MEL-5 (melanoma); read-out: growth inhibition percent (GI%)
MDA-MB-468 = details: Homo sapiens; 10 μM single dose; MDA-MB-468 (breast cancer); read-out: growth inhibition percent (GI%)
K-562 = details: Homo sapiens; 10 μM single dose; (leukaemia); read-out: growth inhibition percent (GI%)
T-47D = details: Homo sapiens, T47D; 10 μM single dose; T-47D (breast cancer); read-out: growth inhibition percent (GI%)
ACHN = details: Homo sapiens; 10 μM single dose; ACHN (renal cancer); read-out: growth inhibition percent (GI%)
HL-60(TB) = details: Homo sapiens; 10 μM single dose; HL-60(TB) (leukaemia); read-out: growth inhibition percent (GI%)
HS 578T = details: Homo sapiens; 10 μM single dose; HS 578T (breast cancer); read-out: growth inhibition percent (GI%)
CAKI-1 = details: Homo sapiens; 10 μM single dose; CAKI-1 (renal cancer); read-out: growth inhibition percent (GI%)
CCRF-CEM = details: Homo sapiens; 10 μM single dose; CCRF-CEM (leukaemia); read-out: growth inhibition percent (GI%)
SF-268 = details: Homo sapiens; 10 μM single dose; SF-268 (CNS cancer); read-out: growth inhibition percent (GI%)
MDA-MB-435 = details: Homo sapiens; 10 μM single dose; MDA-MB-435 (melanoma); read-out: growth inhibition percent (GI%)
MALME-3M = details: Homo sapiens; 10 μM single dose; MALME-3M (melanoma); read-out: growth inhibition percent (GI%)
HCT-15 = details: Homo sapiens; 10 μM single dose; HCT-15 (colon cancer); read-out: growth inhibition percent (GI%)
IGROV1 = details: Homo sapiens, IGROV-1; 10 μM single dose; IGROV1 (ovarian cancer); read-out: growth inhibition percent (GI%)
A498 = details: Homo sapiens; 10 μM single dose; A498 (renal cancer); read-out: growth inhibition percent (GI%)
UACC-257 = details: Homo sapiens; 10 μM single dose; UACC-257 (melanoma); read-out: growth inhibition percent (GI%)
OVCAR-5 = details: Homo sapiens; 10 μM single dose; OVCAR-5 (ovarian cancer); read-out: growth inhibition percent (GI%)
M14 = details: Homo sapiens; 10 μM single dose; M14 (melanoma); read-out: growth inhibition percent (GI%)

For N#Cc1c(-c2ccc(F)cc2)nc(SCc2ccc(F)cc2)nc1N1CCN(c2ccccc2)CC1 [4n, 2-((4-Fluorobenzyl)thio)-4-(4-fluorophenyl)-6-(4-phenylpiperazin-1-yl)pyrimidine-5-carbonitrile], the inhibition at 10 µM (786–0) was < 10%, the inhibition at 10 µM (OVCAR-3) was < 10% and the inhibition at 10 µM (HT29) was < 10%. For the same compound, the inhibition at 10 µM (MOLT-4) was 12.4%, the inhibition at 10 µM (NCI-H522) was 10.3% and the inhibition at 10 µM (A549/ATCC) was < 10%. For the same compound, the inhibition at 10 µM (TK-10) was < 10%, the inhibition at 10 µM (U251) was < 10% and the inhibition at 10 µM (SF-539) was < 10%. The inhibition at 10 µM (PC-3) was 25.2%, the inhibition at 10 µM (MCF7) was 24.8% and the inhibition at 10 µM (NCI-H460) was < 10%. For the same compound, the inhibition at 10 µM (SNB-75) was 15.6%, the inhibition at 10 µM (SNB-19) was < 10% and the inhibition at 10 µM (KM12) was < 10%. The inhibition at 10 µM (HOP-62) was < 10%, the inhibition at 10 µM (SF-295) was < 10% and the inhibition at 10 µM (SN12C) was < 10%. For the same compound, the inhibition at 10 µM (NCI-H322M) was < 10%, the inhibition at 10 µM (SK-MEL-5) was 12.4% and the inhibition at 10 µM (MDA-MB-468) was < 10%. The inhibition at 10 µM (K-562) was 12.5%, the inhibition at 10 µM (T-47D) was 24.3% and the inhibition at 10 µM (ACHN) was < 10%. For the same compound, the inhibition at 10 µM (HL-60(TB)) was < 10%, the inhibition at 10 µM (HS 578T) was < 10% and the inhibition at 10 µM (CAKI-1) was 16.3%. The inhibition at 10 µM (CCRF-CEM) was 16.6%, the inhibition at 10 µM (SF-268) was 14.1% and the inhibition at 10 µM (MDA-MB-435) was < 10%. For the same compound, the inhibition at 10 µM (MALME-3M) was < 10%, the inhibition at 10 µM (HCT-15) was < 10% and the inhibition at 10 µM (IGROV1) was < 10%. The inhibition at 10 µM (A498) was < 10%, the inhibition at 10 µM (UACC-257) was 12.9% and the inhibition at 10 µM (OVCAR-5) was < 10%. For the same compound, the inhibition at 10 µM (M14) was 10.1%.

With N#Cc1c(-c2ccc(F)cc2)nc(SCc2ccc([N+](=O)[O-])cc2)nc1N1CCNCC1 [4g, 4-(4-Fluorophenyl)-2-((4-nitrobenzyl)thio)-6-(piperazin-1-yl) pyrimidine-5-carbonitrile] the inhibition at 10 µM (786–0) was < 10%, the inhibition at 10 µM (OVCAR-3) was < 10% and the inhibition at 10 µM (HT29) was < 10%. For the same compound, the inhibition at 10 µM (MOLT-4) was < 10%, the inhibition at 10 µM (NCI-H522) was < 10% and the inhibition at 10 µM (A549/ATCC) was < 10%. For the same compound, the inhibition at 10 µM (TK-10) was < 10%, the inhibition at 10 µM (U251) was < 10% and the inhibition at 10 µM (SF-539) was < 10%. The inhibition at 10 µM (PC-3) was < 10%, the inhibition at 10 µM (MCF7) was < 10% and the inhibition at 10 µM (NCI-H460) was < 10%. The inhibition at 10 µM (SNB-75) was 15.9%, the inhibition at 10 µM (SNB-19) was < 10% and the inhibition at 10 µM (KM12) was < 10%. For the same compound, the inhibition at 10 µM (HOP-62) was < 10%, the inhibition at 10 µM (SF-295) was < 10% and the inhibition at 10 µM (SN12C) was < 10%. For the same compound, the inhibition at 10 µM (NCI-H322M) was < 10%, the inhibition at 10 µM (SK-MEL-5) was < 10% and the inhibition at 10 µM (MDA-MB-468) was < 10%. For the same compound, the inhibition at 10 µM (K-562) was < 10%, the inhibition at 10 µM (T-47D) was < 10% and the inhibition at 10 µM (ACHN) was < 10%. For the same compound, the inhibition at 10 µM (HL-60(TB)) was < 10%, the inhibition at 10 µM (HS 578T) was < 10% and the inhibition at 10 µM (CAKI-1) was 11%. The inhibition at 10 µM (CCRF-CEM) was < 10%, the inhibition at 10 µM (SF-268) was < 10% and the inhibition at 10 µM (MDA-MB-435) was < 10%. For the same compound, the inhibition at 10 µM (MALME-3M) was < 10%, the inhibition at 10 µM (HCT-15) was < 10% and the inhibition at 10 µM (IGROV1) was < 10%. The inhibition at 10 µM (A498) was < 10%, the inhibition at 10 µM (UACC-257) was < 10% and the inhibition at 10 µM (OVCAR-5) was < 10%. For the same compound, the inhibition at 10 µM (M14) was < 10%.
